# Patent US20260250318A1, “COMPOSITIONS AND METHODS FOR CROSSING THE BLOOD BRAIN BARRIER” (VOYAGER THERAPEUTICS, INC., priority 2022, published 2026)
# Tested on: brain
# Experiment: Maturation of TTM-002 capsid, NGS enrichment in brain of CD-1 Outbred mice
# Format: in vivo
# Details: NGS fold-enrichment in the brain of CD-1 Outbred mice; intravenous, 1.0×10^12 VG/dose, 14 days; RNA; relative to non-matured TTM-002 control
# Text: This Example describes maturation of the TTM-001 (SEQ ID NO: 981 (amino acid) and 983 (DNA), comprising SEQ ID NO: 941) and TTM-002 (SEQ ID NO: 982 (amino acid) and 984 (DNA), comprising SEQ ID NO: 2) capsid variants to further enhance their transduction and biodistribution in the central nervous system and evolve the AAV capsid variants to provide further cross-species compatibility. Two approaches were used to mature the TTM-001 and TTM-002 capsid sequences in order to randomize and mutate within and around the peptide insert comprised within loop IV of the capsid variant. […] In the first maturation approach, sets of three contiguous amino acids were randomized across the mutagenesis region in the TTM-001 and TTM-002 sequences, which spanned from position 450 to position 466, numbered according to SEQ ID NO: 981 and 982. In the second maturation approach, mutagenic primers were used to introduce point mutations at a low frequency, scattered across the mutagenesis region in the TTM-001 and TTM-002 sequences ranging from position 449 to position 466, numbered according to SEQ ID NO: 981 and 982. AAV capsid variants arising from each maturation approach for TTM-001 were pooled together and AAV capsid variants arising from each maturation approach for TTM-002 were also pooled together, for subsequent testing and characterization in mice.
# The library of pooled matured AAV capsid variants generated from TTM-001 or library of pooled matured AAV capsid variants generated from the TTM-002 matured AAV capsid variant each were intravenously injected into the tail vein of three female CD-1 Outbred mice (Charles River) at a dose of 1.0×10^12 VG/dose. After 14-days in life, the brains of the mice were isolated and RNA was extracted. Following RNA recovery and RT-PCR amplification, a systematic NGS enrichment analysis was performed to calculate the fold enrichment ratio relative to the corresponding TTM-001 or TTM-002 control, and the peptides comprised within the variants were identified. The data for the TTM-001 matured capsid variants is provided in Table 13 and the data for the TTM-002 matured capsid variants is provided in Table 14.
row,Sequence,Fold enrichment over TTM-002
1,KCEYGHDSPHKSGQNQQT,2.36
2,KLEWGHDSPHKSGQNQQT,2.14
3,KTINGHLSPHYFGQNQQT,2.41
4,KMEIGHDSPHKSGQNQQT,2.34
5,KTINGHSSPHYFGQNQQT,2.05
6,KCEIGHDSPHKSGQNQQT,2.10
7,KTINGHDSPHWLLQNQQT,2.37
8,KTINGHDSPHLCGQNQQT,2.59
9,KADQGHDSPHKSGQNQQT,2.07
10,KMETGHDSPHKSGQNQQT,2.12
11,KMEWGHDSPHKSGQNQQT,2.38
12,KMPEGHDSPHKSGQNQQT,3.18
13,KTINGHDSPHKRGQHRQT,4.20
14,KTPQDHDSPHKSGQNQQT,2.00
15,KTINGHDSPHKSAQNQWT,2.07
16,KIEMGHDSPHKSGQNQQT,2.05
17,KMELGHDSPHKSGQNQQT,2.13
18,KTAKDHDSPHKSGQNQQT,2.11
19,KIEVGHDSPHKSGQNQQT,2.16
20,KLEYGHDSPHKSGQNQQT,2.33
21,KTINGHDSPHLLWQNQQT,2.12
22,KVEYGHDSPHKSGQNQQT (peptide inserted in AAV capsid),2.17

row,Sequence,Fold enrichment over TTM-002
1,KFEQGHDSPHKSGQNQQT,2.22
2,KLPEGHDSPHKSGQNQQT,2.19
3,KTINRQRSPHKSGQNQQT,2.11
4,KTINGHDSPHKSRQNDQT,2.01
5,KIENGHDSPHKSGQNQQT,2.19
6,KAEQGHDSPHKSGQNQQT,2.14
7,KNMNGHDSPHKSGQNTHS,2.06
8,KTINGHLSPHYYGQNQQT,2.13
9,KTANEHDSPHKSGQNQQT,2.05
10,KVEWGHDSPHKSGQNQQT,2.15
11,KMDGGHDSPHKSGQNQQT,2.09
12,KMESGHDSPHKSGQNQQT,2.18
13,KQEVGHDSPHKSGQNQQT,2.07
14,KMEVGHDSPHKSGQNQQT,2.11
15,KMEYGHDSPHKSGQNQQT,2.71
16,KMEGGHDSPHKSGQNQQT,2.72
17,KTINGHDSPHKSGRRRQT,2.04
18,KTIKDNDSPHKSGQNQQT,2.27
19,KHDWGHDSPHKSGQNQQT,2.00
20,KTINGHYSPHLFGQNQQT,2.02
21,KTINGHESPHKSAQNHQT,2.07
22,KIPEGHDSPHKSGQNQQT,2.54

row,Sequence,Fold enrichment over TTM-002
1,KATNGHDSPHKSGLNQQT,2.10
2,KIESGHDSPHKSGQNQQT,2.11
3,KIETGHDSPHKSGQNQQT,2.38
4,KRINGHDSPHKSGQKQQN,2.34
5,KMEFGHDSPHKSGQNQQT,2.21
6,KAEVGHDSPHKSGQNQQT,2.15
7,KQQQGHDSPHKSGQNQQT,2.01
8,KISNGHDSPHKSAQNQQT,2.03
9,KTINGHPSPHYLGQNQQT,2.14
10,KIEIGHDSPHKSGQNQQT,2.30
11,KDIMGHDSPHKSGQNQQT,2.23
12,KMEMGHDSPHKSGQNQQT,2.16
13,KAEWGHDSPHKSGQNQQT,2.69
14,KMDAGHDSPHKSGQNQQT,2.15
15,KTSNGDDSPHKSGRNQQT,2.17
16,KADYGHDSPHKSGQNQQT,2.40
17,KCEWGHDSPHKSGQNQQT,2.68
18,KTINGNYSPHKIGQNQQT,2.02
19,KTINGHDSPHINGQKQQT (KTINGHDSPHTNGQKQQT),2.38
20,KIINGHDSPHKSGLTQQT,2.17
21,KADWGHDSPHKSGQNQQT,2.32

# Tested on: brain
# Experiment: Matured TTM-001 and TTM-002 variants, NGS enrichment in mouse brain
# Format: in vivo, mice
# Details: NGS fold-enrichment, brain of mice, relative to AAV9 control
row,Sequence,"Fold Enrichment relative to AAV9, Brain (Mouse)"
1,KAINGSGSPHSKAQNAQT,72.160 fold
2,KTEARSGSPHSKAQNQQT,62.903 fold

# Same assay, conditions: NGS fold-enrichment, mouse brain, relative to AAV9 control
row,Sequence,"Fold Enrichment relative to AAV9, Brain (Mouse)"
1,KTINGHDSPHKSGRTQET,7.270 fold

# Same assay, conditions: mouse brain; relative to AAV9 control
row,Sequence,"Fold Enrichment relative to AAV9, Brain (Mouse)"
1,KTINGSGSPHSKAQNIII,76.742 fold
2,KTERGSGSPHSKAQNQQT,85.368 fold

# Tested on: brains, heart, liver, muscle, and DRG of the NHPs
# Experiment: Maturation of TTM-001 and TTM-002 capsids, NGS enrichment in NHP tissues
# Format: in vivo
# Details: NGS fold-enrichment of RNA, NHP brain, relative to AAV9 control
# Method in brief: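 Variants carry mutations within and flanking the loop IV peptide insert: positions 450–466 were triplet-randomized, while positions 449–466 received low-frequency point mutations. The combined pool went into two NHPs, and each peptide was scored by NGS enrichment ratio against AAV9.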
row,Sequence,"Fold Enrichment relative to AAV9, Brain (NHP)"
1,KTINGHDSPHKSGRTQET,81.599 fold

# Same assay, conditions: NGS fold-enrichment of matured AAV capsid variants; NHP brain, RNA; relative to AAV9 control
row,Sequence,"Fold Enrichment relative to AAV9, Brain (NHP)"
1,KTINGSGSPHSKAQNIII,56.630 fold
2,KTERGSGSPHSKAQNQQT,53.475 fold

# Same assay, conditions: NGS fold-enrichment, DRG of NHPs, relative to AAV9 control
row,Sequence,"Fold Enrichment relative to AAV9, DRG (NHP)"
1,KAINGSGSPHSKAQNAQT,0.000 fold
2,KTEARSGSPHSKAQNQQT,0.000 fold

# Same assay, conditions: NGS fold-enrichment, NHP DRG, relative to AAV9 control
row,Sequence,"Fold Enrichment relative to AAV9, DRG (NHP)"
1,KTINGHDSPHKSGRTQET,0.000 fold

# Same assay, conditions: NGS fold-enrichment, NHP heart, relative to AAV9 control
row,Sequence,"Fold Enrichment relative to AAV9, Heart (NHP)"
1,KTINGHDSPHKSGRTQET,0.062 fold

# Same assay, conditions: NGS fold-enrichment, NHP liver DNA, relative to AAV9 control
row,Sequence,"Fold Enrichment relative to AAV9, Liver DNA (NHP)"
1,KTINGHDSPHKSGRTQET,0.137 fold

# Same assay, conditions: NGS fold-enrichment, NHP liver RNA, relative to AAV9 control
row,Sequence,"Fold Enrichment relative to AAV9, Liver RNA (NHP)"
1,KTINGHDSPHKSGRTQET,0.000 fold

# Same assay, conditions: NGS fold-enrichment, NHP muscle, relative to AAV9 control
row,Sequence,"Fold Enrichment relative to AAV9, Muscle (NHP)"
1,KTINGHDSPHKSGRTQET,0.000 fold

# Same assay, conditions: NGS fold-enrichment, RNA, brain of NHPs, relative to AAV9 control
row,Sequence,"Fold Enrichment relative to AAV9, Brain (NHP)"
1,KAINGSGSPHSKAQNAQT,69.651 fold
2,KTEARSGSPHSKAQNQQT,73.349 fold

# Same assay, conditions: NGS fold-enrichment, heart of NHPs, relative to AAV9 control
row,Sequence,"Fold Enrichment relative to AAV9, Heart (NHP)"
1,KAINGSGSPHSKAQNAQT,0.000 fold
2,KTEARSGSPHSKAQNQQT,0.000 fold

# Same assay, conditions: NGS fold-enrichment, liver DNA of NHPs, relative to AAV9 control
row,Sequence,"Fold Enrichment relative to AAV9, Liver DNA (NHP)"
1,KAINGSGSPHSKAQNAQT,0.142 fold
2,KTEARSGSPHSKAQNQQT,0.118 fold

# Same assay, conditions: NGS fold-enrichment, liver RNA of NHPs, relative to AAV9 control
row,Sequence,"Fold Enrichment relative to AAV9, Liver RNA (NHP)"
1,KAINGSGSPHSKAQNAQT,0.023 fold
2,KTEARSGSPHSKAQNQQT,0.695 fold

# Same assay, conditions: NGS fold-enrichment, muscle of NHPs, relative to AAV9 control
row,Sequence,"Fold Enrichment relative to AAV9, Muscle (NHP)"
1,KAINGSGSPHSKAQNAQT,0.000 fold
2,KTEARSGSPHSKAQNQQT,0.000 fold

# Same assay, conditions: NHP DRG; relative to AAV9 control
row,Sequence,"Fold Enrichment relative to AAV9, DRG (NHP)"
1,KTINGSGSPHSKAQNIII,0.000 fold
2,KTERGSGSPHSKAQNQQT,0.000 fold

# Same assay, conditions: NHP heart; relative to AAV9 control
row,Sequence,"Fold Enrichment relative to AAV9, Heart (NHP)"
1,KTINGSGSPHSKAQNIII,0.062 fold
2,KTERGSGSPHSKAQNQQT,0.030 fold

# Same assay, conditions: NHP liver, DNA; relative to AAV9 control
row,Sequence,"Fold Enrichment relative to AAV9, Liver DNA (NHP)"
1,KTINGSGSPHSKAQNIII,0.056 fold
2,KTERGSGSPHSKAQNQQT,0.175 fold

# Same assay, conditions: NHP liver, RNA; relative to AAV9 control
row,Sequence,"Fold Enrichment relative to AAV9, Liver RNA (NHP)"
1,KTINGSGSPHSKAQNIII,0.099 fold
2,KTERGSGSPHSKAQNQQT,1.416 fold

# Same assay, conditions: NHP muscle; relative to AAV9 control
row,Sequence,"Fold Enrichment relative to AAV9, Muscle (NHP)"
1,KTINGSGSPHSKAQNIII,0.123 fold
2,KTERGSGSPHSKAQNQQT,0.000 fold
